Legend:
mice = assay: standard hot plate test (analgesia); format: in vivo; conditions: Mus musculus; in mice, intravenous injection in the tail vein; read-out: Analgesia ED=50
Method: Analgesia. The novel compounds were tested in the standard hot plate test.
Represenatative results are presented in Table I. The compounds were dissolved in a detergent (Emulphor): ethanol: saline (5:5:90) and administered by intravenous injection in the tail vein with an injection volume of 0.1 ml/10g of body weight.

mouse vas deferens = assay: electrically-evoked twitch response of the mouse vas deferens
Method: R.G. Pertwee, L.A. Stevenson, D.B. Elrick, R. Mechoulam, A.D. Corbett, Brit. J. Pharmacol. 105, 980 (1992). […] The structure of anandamide was established by mass spectrometry (MS) and nuclear magnetic resonance (NMR) spectroscopy. Additional data were obtained from the GC-MS and CID measurements of the trimethylsilyl (TMS) derivative of the material.
Fig. 2. Inhibition of vas deferens twitch response by natural anandamide. Vasa deferentia obtained from MFI mice were mounted in 4 ml siliconized organ baths under an initial tension of 0.5 g. The baths contained Mg++ -Free Krebs solution which was kept at 37 C and bubbled with 95% 02 and 5% CO2 . Tissues were stimulated supramaximally with 0.5 s trains of 3 pulses (train frequency 0.1 Hz: pulse duration 0.5 ms). Isometric contractions were recorded. Natural anandamide was dispersed in Tween 80 and saline (see ref. 12) and added in volumes of 40 µl.

[1] = test system: Arachidonic Acid-Induced Paw Edema; assay: arachidonic acid-induced paw edema; format: in vivo; conditions: Mus musculus, po, compared to vehicle treated controls (peanut oil orally), N=5 mice/group, read-out: percent inhibition of paw edema; for inhibition at 0.05 mg/kg: dose 0.050 mg/kg; for inhibition at 0.1 mg/kg: dose 0.100 mg/kg; for inhibition at 0.25 mg/kg: dose 0.250 mg/kg
Method: The compounds were tested by a method reported by W. Calhoun et al., Agents and Actions, 21, 306-a309 (1987). Water was substituted for mercury as the displacement medium. PAF (1.0 µg) or arachidonic acid (1.0mg) dissolved in 50 µl of 5% ethanol in saline was injected s.c. into the plantar surface of the right hind paw of female mice (20-25g). The mice were under ether anesthesia during this procedure. The volume of the right foot was measured to the level of the lateral malleous by water displacement before treatment and 15 min after PAF injection or 30 min after arachidonic injection. The change in paw volume was calculated for each mouse.

[2] = test system: emesia caused by an antieoplastic drug (cisplatin); assay: antiemetic activity against cisplatin-caused emesis; format: in vivo; conditions: Columbidae, sc, in pigeons, administered subcutaneously, read-out: Reduction of vomiting(50%)
Method: The compounds also tested in pigeons against emesia caused by an antieoplastic drug (cisplatin) according to the method described in Feigenbaum et al., Eur. J. Pharmacol. 169, 159-165 (1989). Representative results are presented in Table I. The compounds were dissolved as described above for the tests on analgesia, and administered subcutaneously. The injection volume was 1.0 ml/kg body weight.

cannabinoid receptor = biological target: T1, cannabinoid receptor (Rattus norvegicus, UniProt P20272); assay: centrifugation radioligand binding assay with [3H]HU-243 on synaptosomal membranes
T1 construct: Synaptosomal membranes were prepared from rat whole brain-minus brainstem; from tissue; host or cells: rat whole brain minus brainstem, synaptosomal membranes (Sprague-Dawley males)
Method: To screen for endogenous cannabinoid compounds there were tested brain-derived fractions using a centrifugation radioligand binding assay. […] Particular attention was paid to the binding of [^3H]HU-243 to the siliconized polypropylene microfuge tubes in which the assay was conducted. Normally, about 15-20% of the added [^3H]HU-243 adheres to the microfuge tube, with the amount increasing slightly when unlabelled cannabinoid drugs displace the radioligand from the receptor.
Synaptosomal membranes were prepared from rat whole brain-minus brainstem (Sprague-Dawley males, 430-470g). [^3H]HU-243 (45-55 pM) was incubated with synaptosomal membranes (protein content 3-4 µg) for 90 min at 30°C with either the indicated concentrations of anandamide or the vehicle alone (fatty acid-free bovine serum albumin, final concentration-0.5 mg/ml). Bound and free radioligand were separated by centrifugation (see ref. 8 for full details of the assay). The data were normalized to 100% of specific binding, which was determined with 50 nM unlabeled HU-243. The amount of specific binding was 77-82% of the total radioactivity bound to the membranes. Data points (□, ▲) represent the average of triplicate determinations from two independent experiments.

[3] = test system: intraocular pressure (I.O.P.); assay: antiglaucoma activity in stable glaucoma induced by chymotrypsin injection into the eye; format: in vivo; conditions: 0.01% aq. solution, rabbits
Method: The compounds were also tested for antiglaucoma activity in rabbits with stable glaucoma induced by δ-chymotrypsin injection into the eye as described in detail in R. Mechoulam et al., On the therapeutic possiblities of some cannabinoids in "The Therapeutic Potential of Marihuana" (eds S. Cohen. R.C. Stillman) Plenum Press, New York, 1975. pp. 35-48). The compounds were compared in activity to that of pilocarpine (a standard antiglaucoma drug) which at 0.01% aq. solution reduces the intraocular pressure (I.O.P.) and delays recovery to half time of the original I.O.P. about 30 hours. […] The compounds were dissolved as described for analgesia and further diluted with saline to obtain the required concentration.

T1 sequence (P20272 whole entry): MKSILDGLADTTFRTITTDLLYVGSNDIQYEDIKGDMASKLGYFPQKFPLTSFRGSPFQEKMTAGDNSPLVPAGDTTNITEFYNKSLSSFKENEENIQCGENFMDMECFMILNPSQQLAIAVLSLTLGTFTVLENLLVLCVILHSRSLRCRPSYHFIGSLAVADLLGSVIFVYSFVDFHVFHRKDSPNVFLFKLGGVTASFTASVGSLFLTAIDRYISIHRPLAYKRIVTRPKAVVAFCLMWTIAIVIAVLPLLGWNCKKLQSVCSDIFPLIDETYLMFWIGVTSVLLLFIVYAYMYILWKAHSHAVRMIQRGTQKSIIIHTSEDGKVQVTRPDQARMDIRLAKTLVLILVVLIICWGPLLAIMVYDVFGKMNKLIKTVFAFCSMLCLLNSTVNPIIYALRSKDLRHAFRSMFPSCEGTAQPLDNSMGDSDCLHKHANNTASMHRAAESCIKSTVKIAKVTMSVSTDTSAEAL

Structure (SMILES): CCCCC/C=C\C/C=C\C/C=C\C/C=C\CCCC(=O)NCCO [Arachidonylethanolamide, 5,8,11,14-icosatetraenamide, (N,-2-hydroxyethyl)-(all-Z)]
- ED50 (mice): 4.2 mg/kg
- inhibition of the twitch response (mouse vas deferens; electrically-evoked, mouse vas deferens): concentration-dependent inhibition
- reversal of the inhibition of the twitch response by naloxone (mouse vas deferens; naloxone 300 nM): not reversed
- inhibition at 0.01 mg/kg ([1]; dose 0.010 mg/kg): 56.2%
- inhibition at 0.025 mg/kg ([1]; dose 0.025 mg/kg): 58.4%
- inhibition at 0.05 mg/kg [1]: 74.2%
- inhibition at 0.1 mg/kg [1]: 98%
- inhibition at 0.25 mg/kg [1]: 100%
- ED50 [2]: 2.5 mg/kg

Structure (SMILES): CC/C=C\C/C=C\C/C=C\C/C=C\C/C=C\C/C=C\CCC(=O)NCCO [4,7,10,13,16,19-docosahexaenylethanolamide]
- ED50 (mice): 6.1 mg/kg
- inhibition at 0.05 mg/kg [1]: 52.4%
- inhibition at 0.1 mg/kg [1]: 66.8%
- inhibition at 0.25 mg/kg [1]: 72%
- ED50 [2]: 4.8 mg/kg

Structure (SMILES): CCCCC/C=C\C/C=C\C/C=C\C/C=C\CCCCCC(=O)NCCO [cis-7,10,13,16-docosatetraenoylethanolamide]
- Ki (cannabinoid receptor; compounds isolated from the brain and synthesized): 34.4 ± 3.2 nM

Structure (SMILES): CC[C@@H]1C(=O)OC[C@@H]1Cc1cncn1C [pilocarpine]
- delays recovery to half time of the original I.O.P. [3]: about 30 hours

Structure (SMILES): CCCCC/C=C\C/C=C\C/C=C\C/C=C\CCCC(=O)NCC(C)(C)O [arachidonoyl-β-dimethylethanolamide]
- Ki (cannabinoid receptor; synthetic compounds, prepared and tested): 162 ± 34.1 nM

Source: patent EP0670826B1, “FATTY ACID DERIVATIVES AND PHARMACEUTICAL COMPOSITIONS CONTAINING THEM” (YISSUM RESEARCH DEVELOPMENT COMPANY OF THE HEBREW …, priority 1992, dated 1994)
